Source: paper PMC10619976, “Structural basis of EHEP-mediated offense against phlorotannin-induced defense from brown algae to protect akuBGL activity” (eLife, 2023)

Target: T1, akuBGL (110 kDa β-glucosidase) (Aplysia kurodai, UniProt A0A1V1FXL2)
T1 construct: gene ApBGL; native, purified from digestive fluid; signal peptide M1-D25 removed; 110 kDa; two GH1 domains (L26-T494, D513-P978); N-glycosylated at N113, N212, N645; precursor ends at M994
Assay: HPLC or absorbance at […] nm of o-nitrophenol
Type: biochemical
Settings: 2.5 mM ONPG, 49 nM akuBGL, pH 5.5, 100 mM NaCl, 10 mM CaCl2, 37 °C, 10 min

T1 sequence (A0A1V1FXL2 entry or part of it): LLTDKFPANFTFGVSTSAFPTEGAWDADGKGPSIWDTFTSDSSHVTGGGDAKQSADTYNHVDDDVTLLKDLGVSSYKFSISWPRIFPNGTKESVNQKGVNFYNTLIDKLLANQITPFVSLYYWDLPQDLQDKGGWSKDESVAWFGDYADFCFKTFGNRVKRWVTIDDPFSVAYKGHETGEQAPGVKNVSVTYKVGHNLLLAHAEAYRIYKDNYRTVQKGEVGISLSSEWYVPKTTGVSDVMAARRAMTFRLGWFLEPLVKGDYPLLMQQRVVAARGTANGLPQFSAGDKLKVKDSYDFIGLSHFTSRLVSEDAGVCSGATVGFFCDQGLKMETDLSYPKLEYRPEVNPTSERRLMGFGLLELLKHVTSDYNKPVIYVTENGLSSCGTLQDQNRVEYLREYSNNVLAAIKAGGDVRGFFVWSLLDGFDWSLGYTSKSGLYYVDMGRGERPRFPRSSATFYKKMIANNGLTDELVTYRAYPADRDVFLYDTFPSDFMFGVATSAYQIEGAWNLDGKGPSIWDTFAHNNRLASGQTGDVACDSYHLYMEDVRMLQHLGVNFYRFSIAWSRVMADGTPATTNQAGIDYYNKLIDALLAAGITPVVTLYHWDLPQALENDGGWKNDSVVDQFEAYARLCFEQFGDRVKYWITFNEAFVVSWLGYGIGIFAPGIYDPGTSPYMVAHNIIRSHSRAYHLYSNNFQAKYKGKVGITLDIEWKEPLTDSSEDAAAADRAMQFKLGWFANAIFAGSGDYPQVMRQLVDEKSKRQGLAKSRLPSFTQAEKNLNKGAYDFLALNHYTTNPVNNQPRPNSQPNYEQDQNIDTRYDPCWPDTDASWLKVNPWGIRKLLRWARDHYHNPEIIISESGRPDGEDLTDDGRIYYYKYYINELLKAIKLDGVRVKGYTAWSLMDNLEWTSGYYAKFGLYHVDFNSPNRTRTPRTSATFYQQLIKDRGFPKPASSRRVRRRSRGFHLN

## O=[N+]([O-])c1ccccc1O[C@@H]1O[C@H](CO)[C@H](O)[C@H](O)[C@H]1O [ortho-nitrophenyl-β-galactoside]
  HPLC or absorbance at 420 nm of o-nitrophenol: Ortho-nitrophenyl-β-galactoside (ONPG) was used as a substrate to measure akuBGL activity
